Read-outs that look alike come from different tables or passages of the source. Marks after values point to notes of the source that are not given here.
Legend:
[1] = tested on: Crj: CD(SD)IGS rats; conditions: rat, gavage once daily for 3 days; printed on the line of the lowest dose, dose group unclear
Protocol: Each test drug was administered by gavage at a dosing liquid volume of 10 mL/kg/day once daily for 3 days (4 days for the negative control). The animals were examined for mortality, general conditions, body weight, food consumption and the like using PM4800 (Mettler) and EB3200D (Shimadzu Corporation).

[2] = tested on: Crj: CD(SD)IGS rats; assay: Urinary PAG/hippuric acid ratio by 1H NMR in rats; conditions: rat urine, 3 days, mean n = 3-4
Protocol: During the urine pooling, the collecting vessels were kept in an ice-cooled condition. After the urine collection, the urine was centrifuged at 1500×g for 10 minutes, and not less than 1 mL of the supernatant was collected and stored under freezing (below −70° C.) in a microtube in an ultralow-temperature freezer until the measurement. For the negative control group, 24-hour pooled urine was collected under ice cooling; after the urine collection, the urine was stored at −30° C. until the measurement.

[3] = cited from earlier work
[4] = tested on: Crj: CD(SD)IGS rats; conditions: rat, in vivo
Protocol: (§1) The following 10 kinds of commercially available drugs were examined as the test compounds for a potential of inducing PLsis by histopathological examination and peripheral blood lymphocyte testing.
(§2) The following experiments were performed using the prematurely autopsied animals.
(§3) The high-dose dosing suspension was diluted about 3 fold and 10 fold with dispersant/solvent to prepare intermediate- and low-dose dosing suspensions. […] [For LD50, the Summary Basis of Approval (FDA) for each drug was referenced to.]
(§4) The animals were examined for mortality, general conditions, body weight, food consumption and the like using PM4800 (Mettler) and EB3200D (Shimadzu Corporation).

[5] = tested on: Crj: CD(SD)IGS rats; conditions: rat urine, LC-MS/MS, 60 mg/kg/day by gavage for 7 days
Protocol: During that period, the animals were quarantined, examined for general conditions, and weighed. Animals showing no abnormalities were selected and randomly allocated to five groups for urine collection each comprising four males.
The animals were individually housed in wire-net-based metal cages, and the individual cages were placed on water-washable rack in a clean booth as randomized for the animal groups. Animal room environmental conditions comprised a room temperature of 20 to 26° C., a relative humidity of 40 to 70%, and a fresh air ventilation frequency of 8 to 25 times/hour, with a bright phase of 12 hours/day (lighting time: 7:00 am to 7:00 pm). The animals were fed a γ-ray-irradiated powder food (CR-LPF, Oriental Yeast Co., Ltd.) and had free access to the food along with tap water.
A dispersant/medium was added to each test material, and the mixture was stirred to prepare dosing suspensions.
Each test material was administered by gavage at a dosing suspension volume of 10 mL/kg/day once daily for 7 days.
After completion of the administration, pooled urine was collected with ice cooling from all animals under fasting and water denial for about 6 hours. […]
Quantitative analyses of rat urinary hippuric acid and PAG by LC-MS/MS were performed as described below. […]

[6] = tested on: Crj: CD(SD)IGS rats; conditions: male, rat, in vivo, 3 days
Protocol: as §1, §2, §3, §4
Hematological examination was performed for parameters such as RBC count, hematocrit, hemoglobin concentration, mean corpuscular hemoglobin (MCH), mean corpuscular hemoglobin concentration (MCHC), mean corpuscular volume (MCV), platelet count, WBC count, reticulocyte count, differential WBC, and vacuolated lymphocyte ratio (for PLsis-inducing compounds only) using ADVIA120 (Bayer Medical Ltd.) and E-4000 (Sysmex Corporation).

NC12CC3CC(CC(C3)C1)C2 [Amantadine]
death (note beside the dose) [1]: (death)
PAG + hippuric acid/creatinine ([2]; 75 mg/kg/day by gavage): 1.44
PAG/PAG + hippuric acid ([2]; 75 mg/kg/day by gavage): 16.17%
PAG/creatinine (first term of PAG + hippuric acid) ([2]; 75 mg/kg/day by gavage): 0.23
PAG/hippuric acid ([2]; 75 mg/kg/day by gavage): 19.31%
PAG + hippuric acid/creatinine ([2]; 250 mg/kg/day by gavage): 1.21
PAG/PAG + hippuric acid ([2]; 250 mg/kg/day by gavage): 16.18%
PAG/creatinine (first term of PAG + hippuric acid) ([2]; 250 mg/kg/day by gavage): 0.20
PAG/hippuric acid ([2]; 250 mg/kg/day by gavage): 19.69%
hippuric acid/creatinine (second term of PAG + hippuric acid) ([2]; 250 mg/kg/day by gavage): 1.02
PAG + hippuric acid/creatinine ([2]; 750 mg/kg/day by gavage): 0.37
PAG/PAG + hippuric acid ([2]; 750 mg/kg/day by gavage): 56.58%
PAG/creatinine (first term of PAG + hippuric acid) ([2]; 750 mg/kg/day by gavage): 0.21
PAG/hippuric acid ([2]; 750 mg/kg/day by gavage): 130.33%
hippuric acid/creatinine (second term of PAG + hippuric acid) ([2]; 750 mg/kg/day by gavage): 0.16

CCN(CC)CCCC(C)Nc1c2ccc(Cl)cc2nc2ccc(OC)cc12 (stereo not drawn) [Quinacrine, quinacrine]
LD50 ([3]; from Summary Basis of Approval (FDA), species and route not given): 900 mg/kg
PAG + hippuric acid/creatinine ([2]; 60 mg/kg/day by gavage): 1.45
PAG/PAG + hippuric acid ([2]; 60 mg/kg/day by gavage): 21.82* %
PAG/creatinine (first term of PAG + hippuric acid) ([2]; 60 mg/kg/day by gavage): 0.32
PAG/hippuric acid ([2]; 60 mg/kg/day by gavage): 28.35* %
hippuric acid/creatinine (second term of PAG + hippuric acid) ([2]; 60 mg/kg/day by gavage): 1.13
PAG + hippuric acid/creatinine ([2]; 200 mg/kg/day by gavage): 1.58
PAG/PAG + hippuric acid ([2]; 200 mg/kg/day by gavage): 46.42* %
PAG/creatinine (first term of PAG + hippuric acid) ([2]; 200 mg/kg/day by gavage): 0.75
PAG/hippuric acid ([2]; 200 mg/kg/day by gavage): 91.89* %
hippuric acid/creatinine (second term of PAG + hippuric acid) ([2]; 200 mg/kg/day by gavage): 0.83
PAG + hippuric acid/creatinine ([2]; 600 mg/kg/day by gavage): 1.07*
PAG/PAG + hippuric acid ([2]; 600 mg/kg/day by gavage): 78.62* %
PAG/creatinine (first term of PAG + hippuric acid) ([2]; 600 mg/kg/day by gavage): 0.83
PAG/hippuric acid ([2]; 600 mg/kg/day by gavage): 441.69* %
hippuric acid/creatinine (second term of PAG + hippuric acid) ([2]; 600 mg/kg/day by gavage): 0.24
Histopathological changes (PLsis): Liver ([4]; 60 mg/kg/day): +
Histopathological changes (PLsis): Lung ([4]; 60 mg/kg/day): +
Histopathological changes (PLsis): Lymph node ([4]; 60 mg/kg/day): −
Histopathological changes (PLsis): Others ([4]; 60 mg/kg/day): −
Histopathological changes (PLsis): Spleen ([4]; 60 mg/kg/day): −
Histopathological changes (PLsis): Liver ([4]; 200 mg/kg/day): +
Histopathological changes (PLsis): Lung ([4]; 200 mg/kg/day): +
Histopathological changes (PLsis): Lymph node ([4]; 200 mg/kg/day): +
Histopathological changes (PLsis): Others ([4]; 200 mg/kg/day): −
Histopathological changes (PLsis): Spleen ([4]; 200 mg/kg/day): −
Histopathological changes (PLsis): Liver ([4]; 600 mg/kg/day): +
Histopathological changes (PLsis): Lung ([4]; 600 mg/kg/day): +
Histopathological changes (PLsis): Lymph node ([4]; 600 mg/kg/day): +
Histopathological changes (PLsis): Others ([4]; 600 mg/kg/day): −
Histopathological changes (PLsis): Spleen ([4]; 600 mg/kg/day): −
PAG/hippuric acid concentration ratio compared to the control group [5]: increased
PAG/hippuric acid ratio ([5]; mean ± SD n = 4): 0.2178 ± 0.0919
Mean vacuolated lymphocyte ratio ([6]; 60 mg/kg/day): 14%
Mean vacuolated lymphocyte ratio ([6]; 200 mg/kg/day): 32%
Mean vacuolated lymphocyte ratio ([6]; 600 mg/kg/day): 52%

CN(C)CCCN1c2ccccc2CCc2ccc(Cl)cc21 [Clomipramine, clomipramine]
death (note beside the dose) [1]: (death)
LD50 ([3]; in vivo): 914 mg/kg
PAG + hippuric acid/creatinine ([2]; 100 mg/kg/day by gavage): 1.42
PAG/PAG + hippuric acid ([2]; 100 mg/kg/day by gavage): 14.27%
PAG/creatinine (first term of PAG + hippuric acid) ([2]; 100 mg/kg/day by gavage): 0.20
PAG/hippuric acid ([2]; 100 mg/kg/day by gavage): 16.79%
hippuric acid/creatinine (second term of PAG + hippuric acid) ([2]; 100 mg/kg/day by gavage): 1.22
PAG + hippuric acid/creatinine ([2]; 300 mg/kg/day by gavage): 0.74*
PAG/PAG + hippuric acid ([2]; 300 mg/kg/day by gavage): 33.36* %
PAG/creatinine (first term of PAG + hippuric acid) ([2]; 300 mg/kg/day by gavage): 0.20
PAG/hippuric acid ([2]; 300 mg/kg/day by gavage): 62.72* %
hippuric acid/creatinine (second term of PAG + hippuric acid) ([2]; 300 mg/kg/day by gavage): 0.52
Histopathological changes (PLsis): Liver ([4]; 100 mg/kg/day): −
Histopathological changes (PLsis): Lung ([4]; 100 mg/kg/day): −
Histopathological changes (PLsis): Lymph node ([4]; 100 mg/kg/day): −
Histopathological changes (PLsis): Others ([4]; 100 mg/kg/day): −
Histopathological changes (PLsis): Spleen ([4]; 100 mg/kg/day): −
Histopathological changes (PLsis): Liver ([4]; 300 mg/kg/day): −
Histopathological changes (PLsis): Lung ([4]; 300 mg/kg/day): +
Histopathological changes (PLsis): Lymph node ([4]; 300 mg/kg/day): +
Histopathological changes (PLsis): Others ([4]; 300 mg/kg/day): −
Histopathological changes (PLsis): Spleen ([4]; 300 mg/kg/day): −
Histopathological changes (PLsis): Liver ([4]; 1000 mg/kg/day): +
Histopathological changes (PLsis): Lung ([4]; 1000 mg/kg/day): −
Histopathological changes (PLsis): Lymph node ([4]; 1000 mg/kg/day): +
Histopathological changes (PLsis): Others ([4]; 1000 mg/kg/day): Kidney
Histopathological changes (PLsis): Spleen ([4]; 1000 mg/kg/day): −
Mean vacuolated lymphocyte ratio ([6]; 100 mg/kg/day): 2%
Mean vacuolated lymphocyte ratio ([6]; 300 mg/kg/day): 30%
Mean vacuolated lymphocyte ratio ([6]; 1000 mg/kg/day): 38%
